Data as given in US11440923B2, “Substituted macrocyclic indole derivatives” (Bayer Aktiengesellschaft, priority 2017, dated 2022).
Where two headings read alike, the source gives them in different places.

Key:
[1] = system: SUDHL5 cells; test: Antiproliferation assay SUDHL5 (Assay 7); format: cell-based; conditions: 72 h, CellTiter-Glo, read-out: Antiproli SUDHL5 IC50 (median)
Method in brief: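 Cell proliferation was measured with CellTiter-Glo luminescence after 72 h compound exposure at 37 °C. A day 0 reference plate, read after overnight incubation, set the time-zero value. IC50s were calculated relative to day 0 (CI) and DMSO control (C0) values.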

[2] = target: MCL-1 (Homo sapiens (Human), UniProt Q07820, K194A/K197A/R201A); test: Protein-protein interaction assay MCL-1/Noxa BH3 peptide (MCL-1 assay, TR-FRET); format: binding
Method in brief: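 Competition TR-FRET with MBP-MCL-1 (aa 173-321) at 1 nM final and biotinylated Noxa BH3 peptide, pH 7 Tris buffer. Compounds pre-incubated 10 min at 22° C., then 1 h at 22° C. and overnight at 4° C. 665/620 nm ratio normalized to DMSO; IC50 from 4-parameter fit.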

Chain of MCL-1 (Q07820 whole entry, looked up, stated change not applied, the tested form may be a part): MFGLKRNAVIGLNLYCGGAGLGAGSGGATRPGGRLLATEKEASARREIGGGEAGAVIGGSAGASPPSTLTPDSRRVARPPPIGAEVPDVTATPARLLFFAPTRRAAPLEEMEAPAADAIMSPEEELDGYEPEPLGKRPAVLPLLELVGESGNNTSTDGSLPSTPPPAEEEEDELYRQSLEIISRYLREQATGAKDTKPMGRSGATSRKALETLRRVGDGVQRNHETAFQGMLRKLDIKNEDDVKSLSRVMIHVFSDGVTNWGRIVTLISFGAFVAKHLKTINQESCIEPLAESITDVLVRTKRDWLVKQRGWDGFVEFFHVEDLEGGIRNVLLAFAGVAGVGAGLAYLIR

SMILES | IC50 ([1]; Homo sapiens, SU-DHL-5, 72 h) [nM] | IC50 ([2]; MCL-1 Assay IC50 (median)) [nM] | IC50 [1] [nM] | IC50 ([2]; read-out: MCL-1 Assay IC50 (median)) [nM]
CCc1c2c(nn1C)C(CCO)OCCCCn1c(C(=O)O)c(CCCOc3cccc4cc(F)ccc34)c3ccc(Cl)c-2c31 (single isomer, unassigned; enantiomer 1) [Example 45, (+)-4-chloro-3-ethyl-7-{3-[(6-fluoronaphthalen-1-yl)oxy]propyl}-15-(2-hydroxyethyl)-2-methyl-2,10,11,12,13,15-hexahydropyrazolo[4′,3′:9,10][1,6]oxazacycloundecino[8,7,6-hi]indole-8-carboxylic Acid (Enantiomer 1)] | 95 | 0.55 |  | 
CCc1c2c(nn1C)C(Cc1ccccc1)OCCCCn1c(C(=O)O)c(CCCOc3cccc4cc(F)ccc34)c3ccc(Cl)c-2c31 (racemic) [Example 92, (rac)-(rac-15)-benzyl-4-chloro-3-ethyl-7-{3-[(6-fluoro-1-naphthyl)oxy]propyl}-2-methyl-2,10,11,12,13,15-hexahydropyrazolo[4′,3′:9,10][1,6]oxazacycloundecino[8,7,6-hi]indole-8-carboxylic Acid] | 1200 | 3.2 |  | 
CCc1c2c(nn1C)C1CCCN1CCCCn1c(C(=O)O)c(CCCOc3cccc4cc(F)ccc34)c3ccc(Cl)c-2c31 (single isomer, unassigned; (+)) [Example 105, (+)-17-chloro-1-ethyl-14-{3-[(6-fluoronaphthalen-1-yl)oxy]propyl}-2-methyl-3b,4,5,6,8,9,10,11-octahydro-2H-pyrazolo[3′,4′:8,9]pyrrolo[1′,2′:6,7][1,6]diazacycloundecino[10,11,1-hi]indole-13-carboxylic Acid] |  |  | 340 | 1.1
CCc1c2c(nn1C)C(c1ccccc1)OCCCCn1c(C(=O)O)c(CCCOc3cccc4cc(F)ccc34)c3ccc(Cl)c-2c31 (racemic) [Example 59, (rac)-4-chloro-3-ethyl-7-{3-[(6-fluoronaphthalen-1-yl)oxy]propyl}-2-methyl-(15-rac)-phenyl-2,10,11,12,13,15-hexahydropyrazolo[4′,3′:9,10][1,6]oxazacycloundecino[8,7,6-hi]indole-8-carboxylic Acid] | 5100 | 2.7 |  | 
Cc1c2c(nn1C)C(CCN1CCOCC1)OCCCCn1c(C(=O)O)c(CCCOc3cccc4ccccc34)c3ccc(Cl)c-2c31 (racemic) [Example 13, (rac)-4-chloro-2,3-dimethyl-15-[2-(morpholin-4-yl)ethyl]-7-{3-[(naphthalen-1-yl)oxy]propyl}-2,10,11,12,13,15-hexahydropyrazolo[4′,3′:9,10][1,6]oxazacycloundecino[8,7,6-hi]indole-8-carboxylic Acid] | 110 | 1.6 |  | 
Cc1c2c(nn1C)C(CCO)OCCCCn1c(C(=O)O)c(CCCOc3cccc4ccccc34)c3ccc(Cl)c-2c31 (racemic) [Example 26, (rac)-4-chloro-15-(2-hydroxyethyl)-2,3-dimethyl-7-{3-[(naphthalen-1-yl)oxy]propyl}-2,10,11,12,13,15-hexahydropyrazolo[4′,3′:9,10][1,6]oxazacycloundecino[8,7,6-hi]indole-8-carboxylic Acid] | 410 | 1.1 |  | 
Cc1c2c(nn1C)C(CCN1CCOCC1)OCCCCn1c(C(=O)O)c(CCCOc3cccc4ccccc34)c3ccc(Cl)c-2c31 (single isomer, unassigned; enantiomer 2) [Example 15, 4-chloro-2,3-dimethyl-15-[2-(morpholin-4-yl)ethyl]-7-{3-[(naphthalen-1-yl)oxy]propyl}-2,10,11,12,13,15-hexahydropyrazolo[4′,3′:9,10][1,6]oxazacycloundecino[8,7,6-hi]indole-8-carboxylic Acid (Enantiomer 2)] |  | 65 | 2500 | 
CCc1c2c(nn1C)C(CCCN1CCOCC1)OCCCCn1c(C(=O)O)c(CCCOc3cccc4cc(F)ccc34)c3ccc(Cl)c-2c31 (racemic) [Example 65, (rac)-4-chloro-3-ethyl-7-{3-[(6-fluoronaphthalen-1-yl)oxy]propyl}-2-methyl-(15-rac)-[3-(morpholin-4-yl)propyl]-2,10,11,12,13,15-hexahydropyrazolo[4′,3′:9,10][1,6]oxazacycloundecino[8,7,6-hi]indole-8-carboxylic Acid] | 490 | 1.3 |  | 
Cc1c2c(nn1C)C(CCO)OCCCCn1c(C(=O)O)c(CCCOc3cccc4ccccc34)c3ccc(Cl)c-2c31 (single isomer, unassigned; enantiomer 2) [Example 32, (−)-4-chloro-15-(2-hydroxyethyl)-2,3-dimethyl-7-{3-[(naphthalen-1-yl)oxy]propyl}-2,10,11,12,13,15-hexahydropyrazolo[4′,3′:9,10][1,6]oxazacycloundecino[8,7,6-hi]indole-8-carboxylic Acid (Enantiomer 2)] |  | 75 | 26000 | 
Cc1c2c(nn1C)C(C1CC1)OCCCCn1c(C(=O)O)c(CCCOc3cccc4ccccc34)c3ccc(Cl)c-2c31 (racemic) [Example 28, (rac)-4-Chloro-15-cyclopropyl-2,3-dimethyl-7-{3-[(naphthalen-1-yl)oxy]propyl}-2,10,11,12,13,15-hexahydropyrazolo[4′,3′:9,10][1,6]oxazacycloundecino[8,7,6-hi]indole-8-carboxylic Acid] | 2700 | 1.1 |  | 
Cc1c2c(nn1C)C(CCN1CCOCC1)OCCCCn1c(C(=O)O)c(CCCOc3cccc4cc(F)ccc34)c3ccc(Cl)c-2c31 (racemic) [Example 16, (rac)-4-chloro-7-{3-[(6-fluoronaphthalen-1-yl)oxy]propyl}-2,3-dimethyl-15-[2-(morpholin-4-yl)ethyl]-2,10,11,12,13,15-hexahydropyrazolo[4′,3′:9,10][1,6]oxazacycloundecino[8,7,6-hi]indole-8-carboxylic Acid] | 19 | 2 |  | 
